Test results as given in patent US7935674B2, “Indole derivatives” (Mitsubishi Tanabe Pharma Corporation, priority 2005, dated 2011).

How the values were obtained:
human SGLT2 = molecular target: T1, human SGLT2 (Homo sapiens, UniProt P31639); test: Assay for SGLT2 inhibition (14C-AMG uptake in CHOK1 cells expressing human SGLT2); format: cell-based; details: CHOK1 cells expressing human SGLT2; 14C-AMG uptake, 0.5 mM, 2 hours at 37° C.; read-out: IC50
T1 construct: expressed in transfected cells; host or cells: CHOK1 (Chinese hamster ovary) cells, kept under Geneticin selection
T1 sequence (P31639 1-672): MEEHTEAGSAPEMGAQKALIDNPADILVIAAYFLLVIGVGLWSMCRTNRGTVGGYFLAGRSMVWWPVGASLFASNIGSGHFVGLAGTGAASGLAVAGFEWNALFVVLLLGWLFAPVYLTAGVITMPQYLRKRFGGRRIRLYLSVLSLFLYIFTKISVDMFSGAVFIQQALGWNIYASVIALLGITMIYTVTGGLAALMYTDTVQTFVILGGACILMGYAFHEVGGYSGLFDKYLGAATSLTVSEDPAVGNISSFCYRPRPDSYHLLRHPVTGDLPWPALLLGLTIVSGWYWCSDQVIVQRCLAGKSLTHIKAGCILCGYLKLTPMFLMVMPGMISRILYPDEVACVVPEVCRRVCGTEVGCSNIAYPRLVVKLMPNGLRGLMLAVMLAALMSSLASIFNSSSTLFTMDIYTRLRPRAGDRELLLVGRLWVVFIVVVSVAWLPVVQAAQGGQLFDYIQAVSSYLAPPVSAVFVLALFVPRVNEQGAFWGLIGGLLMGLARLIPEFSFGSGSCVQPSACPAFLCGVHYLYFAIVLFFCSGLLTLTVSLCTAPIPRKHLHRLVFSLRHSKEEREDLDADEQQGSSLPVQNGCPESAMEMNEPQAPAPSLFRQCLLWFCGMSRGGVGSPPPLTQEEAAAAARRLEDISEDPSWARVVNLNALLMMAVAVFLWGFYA
Method: 1. Assay for SGLT2 Inhibition
Compounds described in the above examples were used for the SGLT2 inhibition assay.
CHOK1 cells expressing human SGLT2 were seeded in 24-well plates at a density of 400,000 cells/well in F-12 nutrient mixture (Ham's F-12) containing 10% fetal bovine serum, 400 μg/ml Geneticin, 50 units/ml sodium penicillin G (Gibco-BRL) and 50 μg/ml streptomycin sulfate. After 2 days of culture at 37° C. in a humidified atmosphere containing 5% CO2, cells were washed once with the assay buffer (137 mM NaCl, 5 mM KCl, 1 mM CaCl2, 1 mM MgCl2, 50 mM Hepes, and 20 mM Tris, pH 7.4) and incubated with 250 μl of the buffer containing test compounds for 10 min at 37° C. Test compounds were dissolved in DMSO. The final concentration of DMSO was 0.5%. The transport reaction was initiated by addition of 50 μl [^14C]-methyl-α-D-glucopyranoside (^14C-AMG) solution (final concentration, 0.5 mM). After incubation for 2 hours at 37° C., the uptake was stopped by aspiration of the incubation mixture, the cells were washed three times with ice-cold PBS. Then, cells were solubilized with 0.3 N NaOH and aliquots were taken for determination of radioactivity by a liquid scintillation counter. Nonspecific AMG uptake was defined as that which occurred in the presence of 100 μM of phlorizin, a specific inhibitor of sodium-dependent glucose cotransporter. Specific uptake was normalized for the protein concentrations measured by the method of Bradford. The 50% inhibitory concentration (IC50) values were calculated from dose-response curves by least square method.

Sprague-Dawley (SD) rats = test: Urinary glucose excretion test in rats; format: in vivo, rat; details: male SD rats; 30 mg/kg by oral gavage; urine collected for 24 hours; daily amount of glucose excreted in urine per individual
Method: 2. Urinary Glucose Excretion Test in Rats Test Compounds:
Compounds described in the above examples were used for the Urinary glucose excretion test in rats.
6-week-old male Sprague-Dawley (SD) rats were housed in individual metabolic cages with free access to food and water from 2 days prior to the experiment. On the morning of the experiment, rats were administered vehicle (0.2% carboxymethyl cellulose solution containing 0.2% Tween80) or test compounds (30 mg/kg) by oral gavage at a volume of 10 ml/kg. Then, urine of the rat was collected for 24 hours, and the urine volume was measured. Subsequently, the glucose concentration in urine was quantified using the enzymatic assay kit and the daily amount of glucose excreted in urine per individual was calculated.

| SMILES | IC50 (human SGLT2) [nM] | Urinary glucose (Sprague-Dawley (SD) rats) |
| --- | --- | --- |
| Cc1ccc(Cc2cn([C@@H]3O[C@H](CO)[C@@H](O)[C@H](O)[C@H]3O)c3cccc(F)c23)cc1 [Example 24, 4-Fluoro-3-(4-methylphenylmethyl)-1-(β-D-glucopyranosyl)-indole] | 6.3 | – |
| OC[C@H]1O[C@@H](n2cc(Cc3ccc4occc4c3)c3c(Cl)c(F)ccc32)[C@H](O)[C@@H](O)[C@@H]1O [Example 34, 3-(Benzo[b]furan-5-yl-methyl)-4-chloro-5-fluoro-1-(β-D-gluco-pyranosyl)indole] | 11 | B (2400 mg>B≧2000 mg) |
| OC[C@H]1O[C@@H](n2cc(Cc3ccc(Cl)cc3)c3c(Cl)cccc32)[C@H](O)[C@@H](O)[C@@H]1O [Example 6, 4-Chloro-3-(4-chlorophenylmethyl)-1-(β-D-glucopyranosyl)-indole] | 9.8 | A (A≧2400 mg) |
| Cc1cccc2c1c(Cc1ccc3occc3c1)cn2[C@@H]1O[C@H](CO)[C@@H](O)[C@H](O)[C@H]1O [Example 40, 3-(Benzo[b]furan-5-yl-methyl)-4-methyl-1-(β-D-glucopyranosyl)indole] | 6.2 | B (2400 mg>B≧2000 mg) |
| CCOc1ccc(Cc2cn([C@@H]3O[C@H](CO)[C@@H](O)[C@H](O)[C@H]3O)c3cccc(F)c23)cc1 [Example 8, 3-(4-Ethoxyphenylmethyl)-4-fluoro-1-(β-D-glucopyranosyl)-indole] | 4.8 | A (A≧2400 mg) |
| Cc1cccc2c1c(Cc1ccc(-c3cccs3)s1)cn2[C@@H]1O[C@H](CO)[C@@H](O)[C@H](O)[C@H]1O [Example 51, 4-Methyl-3-(5-(2-thienyl)thiophen-2-yl-methyl)-1-(β-D-gluco-pyranosyl)indole] | 6.1 | – |
| CCOc1ccc(Cc2cn([C@@H]3O[C@H](CO)[C@@H](O)[C@H](O)[C@H]3O)c3cccc(Cl)c23)cc1 [Example 3, 4-Chloro-3-(4-ethoxyphenylmethyl)-1-(β-D-glucopyranosyl)-indole] | 3.5 | B (2400 mg>B≧2000 mg) |
| Cc1cccc2c1c(Cc1ccc(Br)cc1)cn2[C@@H]1O[C@H](CO)[C@@H](O)[C@H](O)[C@H]1O [Example 38, 3-(4-Bromophenylmethyl)-4-methyl-1-(β-D-glucopyranosyl)-indole] | 12 | B (2400 mg>B≧2000 mg) |
| CSc1ccc(Cc2cn([C@@H]3O[C@H](CO)[C@@H](O)[C@H](O)[C@H]3O)c3cccc(Cl)c23)cc1 [Example 4, 4-Chloro-3-(4-(methylthio)phenylmethyl)-1-(β-D-gluco-pyranosyl)indole] | 1.7 | – |
| OC[C@H]1O[C@@H](n2cc(Cc3ccc4c(c3)CCO4)c3c(Cl)cccc32)[C@H](O)[C@@H](O)[C@@H]1O [Example 21, 4-Chloro-3-(2,3-dihydrobenzo[b]furan-5-yl-methyl)-1-(β-D-glucopyranosyl)indole] | 1.8 | – |
| OC[C@H]1O[C@@H](n2cc(Cc3ccc(F)cc3)c3c(Cl)cccc32)[C@H](O)[C@@H](O)[C@@H]1O [Example 27, 4-Chloro-3-(4-fluorophenylmethyl)-1-(β-D-glucopyranosyl)-indole] | 16 | B (2400 mg>B≧2000 mg) |
| CCc1ccc(Cc2cn([C@@H]3O[C@H](CO)[C@@H](O)[C@H](O)[C@H]3O)c3cccc(F)c23)s1 [Example 18, 3-(5-Ethylthiophen-2-yl-methyl)-4-fluoro-1-(β-D-gluco-pyranosyl)indole] | 4.1 | B (2400 mg>B≧2000 mg) |
| OC[C@H]1O[C@@H](n2cc(Cc3ccc(OCCF)cc3)c3c(Cl)cccc32)[C@H](O)[C@@H](O)[C@@H]1O [Example 17, 4-Chloro-3-(4-(2-Fluoroethyloxy)phenylmethyl)-1-(β-D-glucopyranosyl)indole] | 2.5 | – |
| CCOc1ccc(Cc2cn([C@@H]3O[C@H](CO)[C@@H](O)[C@H](O)[C@H]3O)c3cc(Cl)cc(Cl)c23)cc1 [Example 28, 4,6-Dichloro-3-(4-ethoxyphenylmethyl)-1-(β-D-glucopyranosyl)-indole] | 3.2 | B (2400 mg>B≧2000 mg) |
| Cc1cccc2c1c(Cc1ccc(-c3cccc(C#N)c3)s1)cn2[C@@H]1O[C@H](CO)[C@@H](O)[C@H](O)[C@H]1O [Example 45, 3-(5-(3-Cyanophenyl)-thiophen-2-yl-methyl)-4-methyl-1-(β-D-glucopyranosyl)indole] | 2.5 | – |
| OC[C@H]1O[C@@H](n2cc(Cc3ccc(OCCF)cc3)c3c(F)cccc32)[C@H](O)[C@@H](O)[C@@H]1O [Example 12, 4-Fluoro-3-(4-(2-fluoroethyloxy)phenylmethyl)-1-(β-D-gluco-pyranosyl)indole] | 4.1 | – |
| COc1ccc(Cc2cn([C@@H]3O[C@H](CO)[C@@H](O)[C@H](O)[C@H]3O)c3cccc(Cl)c23)cc1 [Example 5, 4-Chloro-3-(4-methoxyphenylmethyl)-1-(β-D-glucopyranosyl)-indole] | 1.8 | – |
| Cc1cccc2c1c(Cc1ccc(-c3ccc(F)cc3)s1)cn2[C@@H]1O[C@H](CO)[C@@H](O)[C@H](O)[C@H]1O [Example 48, 3-(5-(4-Fluorophenyl)thiophen-2-yl-methyl)-4-methyl-1-(β-D-glucopyranosyl)indole] | 19 | – |
| CCc1ccc(Cc2cn([C@@H]3O[C@H](CO)[C@@H](O)[C@H](O)[C@H]3O)c3cccc(Cl)c23)s1 [Example 16, 4-Chloro-3-(5-ethylthiophen-2-yl-methyl)-1-(β-D-gluco-pyranosyl)indole] | 2.1 | – |
| COc1ccc(Cc2cn([C@@H]3O[C@H](CO)[C@@H](O)[C@H](O)[C@H]3O)c3cccc(F)c23)cc1 [Example 9, 4-Fluoro-3-(4-methoxyphenylmethyl)-1-(β-D-glucopyranosyl)-indole] | 3.3 | – |
| Cc1ccc(Cc2cn([C@@H]3O[C@H](CO)[C@@H](O)[C@H](O)[C@H]3O)c3cccc(Cl)c23)cc1 [Example 11, 4-Chloro-3-(4-methylphenylmethyl)-1-(β-D-glucopyranosyl)-indole] | 2.4 | – |
| Cc1cccc2c1c(Cc1ccc(-c3ccc(F)nc3)s1)cn2[C@@H]1O[C@H](CO)[C@@H](O)[C@H](O)[C@H]1O [Example 49, 3-(5-(6-Fluoro-3-pyridyl)thiophen-2-yl-methyl)-4-methyl-1-(β-D-glucopyranosyl)indole] | 8.8 | – |
| CCc1ccc(Cc2cn([C@@H]3O[C@H](CO)[C@@H](O)[C@H](O)[C@H]3O)c3cccc(C)c23)cc1 [Example 23, 3-(4-Ethylphenylmethyl)-4-methyl-1-(β-D-glucopyranosyl)-indole] | 1.1 | – |
| CCc1ccc(Cc2cn([C@@H]3O[C@H](CO)[C@@H](O)[C@H](O)[C@H]3O)c3cccc(Cl)c23)cc1 [Example 1, 4-Chloro-3-(4-ethylphenylmethyl)-1-(β-D-glucopyranosyl)-indole] | 2.9 | – |
| Cc1cccc2c1c(Cc1ccc(-c3ccccc3)s1)cn2[C@@H]1O[C@H](CO)[C@@H](O)[C@H](O)[C@H]1O [Example 50, 4-Methyl-3-(5-phenylthiophen-2-yl-methyl)-1-(β-D-gluco-pyranosyl)indole] | 11 | – |
| CSc1ccc(Cc2cn([C@@H]3O[C@H](CO)[C@@H](O)[C@H](O)[C@H]3O)c3cccc(F)c23)cc1 [Example 10, 4-Fluoro-3-(4-(methylthio)phenylmethyl)-1-(β-D-gluco-pyranosyl)indole] | 2.4 | – |
| CCc1ccc(Cc2cn([C@@H]3O[C@H](CO)[C@@H](O)[C@H](O)[C@H]3O)c3cccc(Br)c23)cc1 [Example 22, 4-Bromo-3-(4-ethylphenylmethyl)-1-(β-D-glucopyranosyl)indole] | 3.7 | – |
